# ChEMBL document CHEMBL3507680, “University of Dundee, Gates Library screen for HepG2 cell viability”
# Assay: Human HepG2 cell viability assay in 384 well format
# Assay type: toxicity, cell-based
# Set-up: dose 125 nL, time 70.5 hour; concentration not given beside the values
# Conditions: HepG2 cells, read-out: Inhibition
row,SMILES,cytotoxicity at 70.5 h [%]
1,O=c1c(S(=O)(=O)N2CCCCC2)cccn1Cc1ccccc1Cl,-1.51
2,CC1CCN(S(=O)(=O)c2cccn(CC(=O)NC(C)(C)C)c2=O)CC1,-9.49
3,Cc1ccc(-c2csc3c(=O)[nH]c(N4CCCC(C(N)=O)C4)nc23)cc1 (stereo not given),1.04
4,O=C(O)C1CCCN(c2nc3c(-c4ccccc4)csc3c(=O)[nH]2)C1 (stereo not given),0.25
5,COCCCNC(=O)Cc1cc(-c2ccc(Cl)cc2)on1,3.59
6,O=C(Cc1cc(-c2ccc3c(c2)OCCO3)on1)NCc1ccccn1,-10.7
7,O=C(c1cc(F)cc(F)c1)N1CCC2(CC1)CC2,-9.31
8,O=C(C1CCCC1)N1CCO[C@@H]2CNC[C@@H]21,12.2
9,CN1C2(CCN(Cc3ccc(F)cc3)C2)c2ccccc2S1(=O)=O (stereo not given),13.5
10,CCN1C(=O)CC(c2cnn(C)c2)C12CCN(C(=O)C1CC=CC1)CC2 (stereo not given),0.244
11,c1ccc(NCc2cn3c(n2)CN(Cc2ccoc2)CC3)nc1,-0.75
12,CN1C(=O)CC(c2cnn(C)c2)C12CCN(C(=O)c1ccc[nH]1)CC2 (stereo not given),-5.07
13,O=c1cc(Cn2ccnc2)nc2n1CCCN(Cc1ccco1)C2,-5.53
14,O=c1cc(Cn2cncn2)nc2n1CCCN(Cc1ccco1)C2,-3.55
15,c1cnc(OCc2nnc3n2CCN(Cc2ccco2)C3)nc1,-0.839
16,CCOC(=O)C1CN(S(=O)(=O)CC)Cc2ncn(CC)c21 (stereo not given),0.473
17,Cn1cc(C2CC(=O)NC23CCN(C(=O)c2ccc[nH]2)CC3)cn1 (stereo not given),-1.53
18,CC(=O)N1CCCc2sc(C(=O)Nc3ccc(C)nc3)nc21,-1.24
19,O=C(C1CCCCC1)N1CCO[C@@H]2CNC[C@@H]21,-2.15
20,Cc1noc([C@]23COC[C@H]2CN(S(=O)(=O)N(C)C)C3)n1,-1.88
21,Cc1noc([C@]23COC[C@H]2CN(S(=O)(=O)C2CC2)C3)n1,-1.24
22,COCC1c2c(cnn2C)CCN1C(=O)c1ccc2c(c1)OCO2 (stereo not given),1.82

row,SMILES,cytotoxicity at 70.5 h [%]
1,c1cncc(-c2ccc3c(c2)CCC32CCNCC2)c1,17.8
2,CN(C)C(=O)N1CCC2(CC(=O)N(c3ccc4c(c3)OCO4)C2)C1 (stereo not given),1.41
3,O=c1ccc2c(n1Cc1ccncc1)CCN(C1CCOC1)CC2 (stereo not given),0.608
4,CC(C)NC(=O)N1CCC(c2nnc3ccc(C(=O)N(C)C)cn23)C1 (stereo not given),-1.02
5,CN1CCCN(C(=O)c2nc3c(s2)CCCN3CC2CC2)CC1,-1.89
6,O=C(c1cc(-c2ccn(CC3CC3)n2)n2ccccc12)N1CCCO1,-3.08
7,O=C(NC1CCCC1)c1nc2c(o1)CN(C(=O)CO)C2,-1.18
8,c1cc(-c2nnn3c2COC(CNCC2CCOCC2)C3)ccn1 (stereo not given),32.3
9,O=C(C1CN(CC2CC2)CC12CCOCC2)N1CCCC1 (stereo not given),16.3
10,O=C(c1ccsc1)N1CCc2onc(CN3CCOCC3)c2C1,-4.87
11,O=C1[C@@H]2CCN(CC3CC3)C[C@@H]2OCCN1c1ccsc1,-2.56
12,COCCN1CCC2(CC1)CC(CC(N)=O)c1ccc(F)cc12 (stereo not given),1.63
13,c1cc(CNCC2Cn3nncc3CO2)ccn1 (stereo not given),-5.93
14,CNC(=O)c1cnc2n1CCN(C(=O)Cc1ccccn1)C2,-13.8
15,CC(C)N1c2sc(-c3ccccc3)nc2CC1C(=O)NCCCO (stereo not given),-5.59
16,CCS(=O)(=O)N1CC[C@@H]2[C@H](COCC3CC3)CN(C)C(=O)[C@@H]2CC1,-5.95
17,c1cc(CNCC2Cn3nncc3CO2)cs1 (stereo not given),-6.68
18,CC(C)N1c2sc(-c3ccccc3)nc2CC1C(=O)NC1CCCC1 (stereo not given),-6.93
19,CC(C)N1c2sc(-c3ccsc3)nc2CC1C(=O)NC1CC1 (stereo not given),-5.25
20,COCc1nc2c(o1)CN(C(=O)NCc1ccccc1)C2,-12.9
21,CCOc1cc(=O)n2c(c1C(=O)OCc1ccc(OC)cc1)CCCC2,-14.9
22,Cc1noc(C2CCCCN2C(=O)NCc2ccco2)n1 (stereo not given),-19.9

row,SMILES,cytotoxicity at 70.5 h [%]
1,CNC(=O)C1CCN(c2nc3nc[nH]c(=O)c3s2)CC1,-16.7
2,COc1cc(C(=O)NC(C)C)nc2c(C)cc(F)cc12,23.4
3,COc1cc(C(=O)NCC2CC2)nc2c(C)cc(F)cc12,-4.75
4,COc1cc(C(=O)NCC2CCCO2)nc2c(C)cc(F)cc12 (stereo not given),-25.4
5,CCc1c(C(=O)O)nnn1-c1cc(C)cc(C)c1,-18.5
6,CN(C)CCCNC(=O)c1cc(Cl)ccc1Cl,-14.5
7,CN(C)CCCNC(=O)c1ccccc1NC(=O)c1ccccc1Cl,22.1
8,O=C(CCn1ccc2ccc(F)cc21)/N=c1\[nH]nc(C2CCCO2)s1 (stereo not given),-20.2
9,CC(CO)NC(=O)c1ccc2[nH]/c(=N\S(C)(=O)=O)sc2c1 (stereo not given),-3.5
10,CSCCC(CO)NC(=O)c1ccc2[nH]/c(=N\S(C)(=O)=O)sc2c1 (stereo not given),-13.7
11,Cc1ccccc1COCCOCn1c(C)cc(=O)[nH]c1=O,-4.1
12,Cc1noc2nc3c(c(C(=O)/N=c4\[nH]nc(C(C)C)s4)c12)CCC3,-12.5
13,COc1ccc(NC(=O)CSc2ccc3nncn3n2)c(OC)c1,-15.9
14,Cc1nn(C)c2nc3c(c(C(=O)/N=c4\[nH]nc(C(C)C)s4)c12)CCC3,-18.8
15,COc1ccc(NC(=O)CCSc2ccc3nncn3n2)c(OC)c1,-11.8
16,COc1cc2[nH]c(C(=O)O)cc2c(OC)c1C,-5.57
17,CCOc1cc(-c2cc(=O)n3c(n2)CCCCC3)ccc1O,-20.5
18,CSc1ccc(-n2nnc(C(=O)O)c2-c2ccccn2)cc1,11.2
19,CC(C)c1ccc(-n2nnc(C(=O)O)c2-c2ccccn2)cc1,-24.1
20,Cc1ccc(S(=O)(=O)NC2=NCN(CCc3cccs3)CN2)cc1,-14.3
21,O=S(=O)(NC1=NCN(CCc2cccs2)CN1)c1ccc(Br)cc1,-18.9
22,CC(C)Cn1c(=O)nc2n1C(=O)N(c1ccc(F)cc1)C2,-25.8

row,SMILES,cytotoxicity at 70.5 h [%]
1,O=C1CC(c2ccc(C(F)(F)F)cc2)c2c(n3ccsc3nc2=O)N1 (stereo not given),-22.1
2,CC(C)c1nnc2ccc(N3CCC(C(=O)O)CC3)nn12,-25.9
3,CNc1oc(-c2ccc(OC)c(S(=O)(=O)N3CCCC3)c2)nc1C#N,-21.8
4,NC(=O)C1CCN(C(=O)CCn2ccc3ccc(F)cc32)CC1,-6.99
5,Cc1c(C)n(-c2ccccn2)c2nc3c(c(N)c12)CCCCC3,-10.8
6,O=c1ccc(-c2cccs2)nn1CN1CCOC(c2ccccc2)C1 (stereo not given),-21.3
7,O=c1ccc(-c2cccs2)nn1CN1CCN(c2ccccn2)CC1,-23.6
8,O=C1CC(c2ccc(Cl)c(Cl)c2)c2c(n3ccsc3nc2=O)N1 (stereo not given),10
9,CC(C)n1c(=O)nc2n1C(=O)N(c1ccc(Cl)cc1)C2,-21.8
10,Cc1oc(-c2nc(C#N)c(NC(C)C)o2)cc1S(=O)(=O)N1CCCC1,-25.3
11,COc1ccc(CCC2CCCCN2)cc1 (stereo not given),24.2
12,CSCC[C@H](N)c1nnc(SCc2cc(C)ccc2C)o1,-5.14
13,COc1ccc(CNCC(C)Oc2ccccn2)cc1Cl (stereo not given),-8.86
14,Cc1ccc(CNCC(C)Oc2ccccn2)cc1 (stereo not given),-33.7
15,CC(CNCc1ccc(Br)cc1)Oc1ccccn1 (stereo not given),2.54
16,CCCN1CCC2(C1)c1ccccc1S(=O)(=O)N2Cc1ccccc1 (stereo not given),3.08
17,CS(=O)(=O)NCc1cn2c(n1)CN(Cc1ccoc1)CC2,3.17
18,Fc1cnc(N2CC3(CCN(CC4CC4)C3)C2)nc1,-0.963
19,O=C(Cc1ccsc1)N1C[C@@H]2OCCN(CC3CC3)[C@@H]2C1,1.39
20,CN(C)C(=O)COCc1nnc2n1CCN(Cc1ccsc1)C2,0.94
21,Cc1nc(-c2cc(C(=O)N3CCCN(C)CC3)c3ccccn23)cn1C,-2.18
22,O=C(C1CN(CC2CCOCC2)CC12CCOCC2)N1CCOCC1 (stereo not given),-2.61

row,SMILES,cytotoxicity at 70.5 h [%]
1,O=S(=O)(C1CC1)N1CCC2(CC1)CN(Cc1nccs1)CCO2,-5.12
2,Fc1cnc(N2CCCC3(CN(Cc4ccccc4)CCO3)C2)nc1 (stereo not given),-4.05
3,Cc1cccc(CO[C@@H]2CO[C@@]3(CCN(S(=O)(=O)N(C)C)C3)C2)n1,-4.3
4,COCCN1CCO[C@@H]2CN(C(=O)Cc3cccc(F)c3)CC[C@@H]2C1,-0.585
5,Cc1cccc(COC2COC3(CCN(S(C)(=O)=O)CC3)C2)n1 (stereo not given),-0.691
6,CC1CCN(C(=O)[C@@H]2C[C@@H]3CCN(CC4CCOCC4)C[C@@H]3O2)CC1,-7.26
7,CC1CCN(C(=O)[C@H]2C[C@@H]3CCN(CC4CCOCC4)C[C@H]3O2)CC1,-6.03
8,CC(C)N(C)Cc1cnc2n1CCN(C(=O)Cc1cccs1)C2C (stereo not given),-6.21
9,CCOCc1cnc2n1CCN(C(=O)Cc1ccccn1)C2C (stereo not given),-5.89
10,Cc1ccc(CN2CC[C@H]3[C@H]2CCN3S(=O)(=O)C2CC2)s1,-5.12
11,Cc1ccc(CN2CC[C@H]3[C@H]2CCN3S(C)(=O)=O)s1,-6.63
12,C[C@@H]1CN(C(=O)C2CCOCC2)C[C@]12CCN(c1cccnc1)C2=O,-6.64
13,CC(C)N1CCC2(CC1)CC(CC(N)=O)c1ccc(F)cc12 (stereo not given),-5.38
14,Cc1ccc(NCc2cn3c(n2)CN(Cc2ccoc2)CC3)nn1,12
15,CC(C)N(C)C[C@H]1OC[C@@H]2CCN(Cc3cccc(C#N)c3)C[C@@H]21,14.2
16,O=c1ccc2c(n1Cc1cccnc1)CCN(C1CCOC1)CC2 (stereo not given),-2.89
17,CC(C)Nc1ncnc2c1CCN(Cc1nccn1C)CC2,8.85
18,COCCN1CCO[C@@H]2CN(C(=O)NCc3cccnc3)CC[C@@H]2C1,0.801
19,CN(C)C[C@H]1OC[C@@H]2CN(C(=O)NCc3cccnc3)CC[C@@H]21,0.184
20,CN1CCCN(C(=O)c2cc(-c3cc[nH]n3)n3ccccc23)CC1,-1.54
21,CN1CCN(C(=O)[C@@H]2CC[C@@H]3[C@@H](CCN3c3ncccn3)O2)CC1,-7.39
22,CC(C)N1[C@H](Cn2cccn2)C[C@@H]2CN(C3CCOCC3)CC[C@@H]21,-1.14
